Laboratory results taken from patent publication US10919927B2, “Immune stimulating macrolide” (ISR IMMUNE SYSTEM REGULATION HOLDING AB (PUBL), priority 2017, dated 2021).
Entries after “also recorded” stand apart in the source; their conditions may differ.

What was measured:
[1] = test system: E. coli, S. salivarius, L. casei, B. longum or M. luteus; assay: Direct antibacterial activity, all bacterial strains tested (summary); type: cell-based
Experimental: The bioactivity of macrolide compounds against 4 strains of common gut bacteria (Escherichia coli, Streptococcus salivarius subsp. salivarius, Lactobacillus casei and Bifidobacterium longum subsp. infantis) and common mammalian skin isolate Micrococcus luteus, was assessed using the Minimum Inhibitory Concentration (MIC) assay. Bacterial strains were purchased from DSMZ (Brunswick, Germany) except M. luteus which was obtained from NCIMB, and stored in 20% glycerol at −80° C. Stock solutions (100% DMSO) of positive controls (azithromycin and erythromycin), and of test compounds 1 and 2 were diluted in broth to working stock concentrations of 256 μg/ml (final assay testing concentration range 128 μg/ml to 0.00391 μg/ml). Stock solutions of all other compounds were diluted in broth to working stock concentrations of 128 μg/ml (final assay testing concentration range 64 μg/ml to 0.00195 μg/ml). Bacterial strains were cultivated in appropriate broth in an anaerobic chamber at 37° C., except for M. luteus which was incubated aerobically at 37° C. 18 h cultures were diluted in broth to an OD595 of 0.1 and then further diluted 1:10. In 96-well plates, in duplicate, 200 μl working stock of test compound was transferred to well 1 and serially diluted (1:2) in broth. 100 μl bacterial suspension was aliquoted into each well and mixed thoroughly. Appropriate sterility controls were included and plates were incubated in an anaerobic chamber, or aerobically (M. luteus) at 37° C. for 18 h. The MIC was determined to be the concentration of test compound in the first well with no visible growth.

human TLR2 = target: T1, human TLR2 (Homo sapiens, UniProt O60603); assay: TLR2 reporter assay (HEK-293-TLR cells, SEAP); type: cell-based; conditions: concentrations 5 uM up to 20 uM
T1 construct: host or cells: recombinant HEK-293-TLR cell lines
Experimental: These cell lines functionally over-express human TLR2 protein as well as a reporter gene which is a secreted alkaline phosphatase (SEAP). The production of this reporter gene is driven by an NFkB inducible promoter. The TLR reporter cell lines activation results are given as optical density values (OD).
20 μl of each test article were used to stimulate the hTLR2 reporter cell lines in a 200 μl of final reaction volume. Samples were tested in duplicate, with at least two concentrations tested—20 uM and 10 uM.
Compounds were tested using a TLR2 reporter assay (see general methods) that measured for stimulation of the TLR2 receptor. Stimulatory effect was measured as an increase in optical density, as compared to the negative control (OD) due to release of secreted alkaline phosphatase (SEAP) and is shown in table 2.

[2] = Caco-2 bidirectional permeability assay; type: in vitro ADME; conditions: human, Caco-2, 10 μM, 90 minutes
Experimental: (§1) 10 μM Test article was added to the apical (A) surface of Caco-2 cell monolayers (in HBSS buffer with 0.3% DMSO and 5 μM LY at 37 degrees C.) and compound permeation into the basolateral (B) compartment measured following 90 minutes incubation. This was also performed in the reverse direction (basolateral to apical) to investigate active transport. LC-MS/MS is used to quantify levels of both the test and standard control compounds. Efflux ratio was calculated by dividing the B to A permeability by the […]. Drug permeability: Papp=(VA/(Area×time))×([drug]accepter/(([drug]initial,donor)×Dilution Factor). Assessment of Metabolic Stability (Microsome Stability Assay)
(§2) Compounds were tested using a standard caco-2 bidirectional permeability assay (see general methods).

Caco-2 cell monolayers = assay: Caco-2 bidirectional permeability assay; type: in vitro ADME
Experimental: as §1, §2

[3] = test system: PBMCs from cytomegalovirus (CMV) infected donors; assay: Cytomegalovirus (CMV) antigen cultures; type: cell-based, Human
Experimental: Human peripheral blood mononuclear cells (PBMCs) were purified from healthy CMV positive donors with Ficoll-Paque density centrifugation. The PBMC were labeled with 5 μM celltrace violet (Invitrogen) in PBS for 15 minutes and then washed with complete cell culture medium. The labeled PBMC was cultured in the presence of a peptide library spanning the CMV pp65 protein (1 μg peptide/ml, JPT) in AIM-V media (Invitrogen) supplemented with L-glutamine, Sodium pyruvate (Sigma), 10% fetal bovine serum, 100 μg/mL penicillin and 100 μg/mL streptomycin (Hyclone) for 6-8 days in 37° C., 5% CO2. Cell proliferation was assessed with flow cytomtery using a BD FACS Canto II flow cytometer.
Study 7: Virus specific T cell proliferation was also affected by compound 1. […] CD127 is crucial for T cell homeostasis, differentiation and function, and reduced expression correlates with disease severity in HIV and other chronic viral diseases (Crawley et al Sem Imm 2012).
Study 8: PBMCs from CMV infected donors cultured in the presence of CMV antigen where either untreated or exposed to compound 1 or compound 2 for 3 days.

PBMCs = assay: Cytokine secretion from PBMC, cytometric bead assay; type: cell-based, Human; conditions: 2 days
Excerpt: (§3) Study 10: PBMCs and macrophages where exposed to compounds 1 or 2 for 2 days (FIG. 11).
(§4) Study 11: PBMCs and macrophages where exposed to compounds 1 and 2 for 2 days.
(§5) Study 12: PBMCs, macrophages and CD4+ T cells where exposed to compounds 1 and 2 for 2 days.

[4] = test system: Macrophages from healthy donors; assay: Cytokine secretion from macrophages, cytometric bead assay; type: cell-based, Human
Experimental: Study 9: Macrophages from healthy donors where exposed to compounds 1 or 2 for 48 hours. […] Compound 1 is therefore able to induce IFN-gamma secretion in macrophages from healthy donors.
as §3, §4, §5

CD4+ T cells = assay: IL-1beta secretion from CD4+ T cells, cytometric bead assay; type: cell-based, Human; conditions: 2 days
Excerpt: as §5

C57bl/6 mice [5] = assay: CD25 high cells in blood of mice after i.v. injection; type: in vivo; conditions: highest dose of 5 mg/kg, 24 h
Experimental: FIG. 14: % CD25 high cells in blood of C57bl/6 mice injected 24 h previously with indicated dose of compound 1. CD25 expression was measured by flow cytometry.
Study 13: Compound 1 was administered i.v. to C57bl/6 mice at 0.165 mg/kg to 5 mg/kg. CD25+ cell abundance was increased in animals receiving the highest dose of 5 mg/kg (FIG. 14), as was body weight in the same group (not shown).

C57bl/6 mice [6] = assay: MHC class I expression on CD11b+ splenocytes of mice after i.v. injection; type: in vivo; conditions: spleen 24 h later
Experimental: FIG. 15: % MHC class I high CD11 b+ cells in spleen of 3 individual C57bl/6 mice injected 24 h previously with indicated compound. MHC class I and CD11 b expression was measured by flow cytometry.
Study 14: Compound 1 or 2 was administered i.v. to C57bl/6 mice.

T1 sequence (O60603 21-784): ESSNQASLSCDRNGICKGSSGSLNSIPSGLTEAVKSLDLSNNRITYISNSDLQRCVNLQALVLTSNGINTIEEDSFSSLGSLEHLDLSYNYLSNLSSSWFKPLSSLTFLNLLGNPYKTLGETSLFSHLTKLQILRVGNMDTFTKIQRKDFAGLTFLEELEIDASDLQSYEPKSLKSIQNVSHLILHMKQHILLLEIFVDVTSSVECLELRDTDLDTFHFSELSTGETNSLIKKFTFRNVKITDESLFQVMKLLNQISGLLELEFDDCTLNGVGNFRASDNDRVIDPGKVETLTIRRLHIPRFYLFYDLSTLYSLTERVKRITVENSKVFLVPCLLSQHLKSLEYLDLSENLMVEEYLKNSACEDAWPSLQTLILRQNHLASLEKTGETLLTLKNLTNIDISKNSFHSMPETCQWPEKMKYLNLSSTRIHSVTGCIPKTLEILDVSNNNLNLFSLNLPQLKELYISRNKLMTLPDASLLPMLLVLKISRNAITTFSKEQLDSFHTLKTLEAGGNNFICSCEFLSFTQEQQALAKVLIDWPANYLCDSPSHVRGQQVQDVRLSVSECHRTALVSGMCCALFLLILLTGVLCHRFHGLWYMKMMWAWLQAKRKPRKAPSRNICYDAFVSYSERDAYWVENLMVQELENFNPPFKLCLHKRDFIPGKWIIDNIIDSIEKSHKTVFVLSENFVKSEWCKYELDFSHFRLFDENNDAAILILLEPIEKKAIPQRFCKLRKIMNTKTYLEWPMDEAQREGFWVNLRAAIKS

Row | TLR2 stimulation (in words) (human TLR2) | Papp A→B at 90 min, 10 μM ([2]; apical to basolateral) | SMILES | antibacterial activity (in words) [1] | efflux ratio at 90 min, 10 μM [2] | cell permeability compared with Azithromycin and EM703 (in words) (Caco-2 cell monolayers) | efflux ratio compared with Azithromycin and EM703 (in words) (Caco-2 cell monolayers) | IFN-gamma secretion ([3]; 3 days) | IL-7 receptor α (CD127) on activated CMV specific CD8+ T cells ([3]; 6 days) | IL-1beta secretion in PBMCs (PBMCs) | IL-12p70 secretion from PBMCs (PBMCs) | expression of RANTES in PBMCs (PBMCs) | IL-1beta secretion in macrophages ([4]; 2 days) | IL-12p70 secretion from macrophages ([4]; 2 days) | expression of RANTES in macrophages ([4]; 2 days) | IFN-gamma secretion from macrophages ([4]; 48 hours) | IL-1beta secretion in CD4+ T cells (CD4+ T cells) | CD25+ cell abundance in blood (C57bl/6 mice [5]) | splenocyte cells (CD11b+) with high MHC I expression (C57bl/6 mice [6])
1 | little or no stimulation | < 0.14 ×10⁻⁶ cm/s | CC[C@H]1OC(=O)[C@H](C)[C@@H](O[C@H]2C[C@@](C)(OC)[C@@H](O)[C@H](C)O2)[C@H](C)[C@@H](O[C@@H]2O[C@H](C)C[C@H](N(C)C)[C@H]2O)[C@](C)(O)C[C@@H](C)CN(C)[C@H](C)[C@@H](O)[C@]1(C)O [Azithromycin, reference compound] | potent activity | > 77.6 |  |  |  |  |  |  |  |  |  |  |  |  |  | 
2 | little or no stimulation |  | CC[C@H]1OC(=O)[C@H](C)[C@@H](O[C@H]2C[C@@](C)(OC)[C@@H](O)[C@H](C)O2)[C@H](C)[C@@H](O[C@@H]2O[C@H](C)C[C@H](N(C)C)[C@H]2O)[C@](C)(O)C[C@@H](C)C(=O)[C@H](C)[C@@H](O)[C@]1(C)O [Erythromycin, Erythromycin A, reference compound] | potent activity |  |  |  |  |  |  |  |  |  |  |  |  |  |  | 

Row | SMILES | TLR2 stimulation (in words) (human TLR2) | Papp A→B at 90 min, 10 μM ([2]; apical to basolateral) | antibacterial activity (in words) [1] | efflux ratio at 90 min, 10 μM [2] | cell permeability compared with Azithromycin and EM703 (in words) (Caco-2 cell monolayers) | efflux ratio compared with Azithromycin and EM703 (in words) (Caco-2 cell monolayers) | IFN-gamma secretion ([3]; 3 days) | IL-7 receptor α (CD127) on activated CMV specific CD8+ T cells ([3]; 6 days) | IL-1beta secretion in PBMCs (PBMCs) | IL-12p70 secretion from PBMCs (PBMCs) | expression of RANTES in PBMCs (PBMCs) | IL-1beta secretion in macrophages ([4]; 2 days) | IL-12p70 secretion from macrophages ([4]; 2 days) | expression of RANTES in macrophages ([4]; 2 days) | IFN-gamma secretion from macrophages ([4]; 48 hours) | IL-1beta secretion in CD4+ T cells (CD4+ T cells) | CD25+ cell abundance in blood (C57bl/6 mice [5]) | splenocyte cells (CD11b+) with high MHC I expression (C57bl/6 mice [6])
3 | CC[C@H]1OC(=O)[C@H](C)[C@@H](O[C@H]2C[C@@H](N(C)C)[C@H](O)[C@@H](C)O2)[C@H](C)[C@@H](O)[C@](C)(O)C[C@@H](C)CN(C)[C@H](C)[C@@H](O)[C@]1(C)O [Compound 1] | stimulated TLR2 at concentrations down to 5 uM |  | no antibacterial activity; also recorded: no or minimal antibacterial effect | 63.4 | more cell permeable | lower efflux ratio | induced secretion of high levels | increased expression | slightly | secreted IL-12p70 | twofold upregulation | increased | secreted IL-12p70 | high expression | secreted IFN-gamma | no IL-1beta was induced | increased | increase
